Reference: US10562944B2, “Herbicide-resistant protein, encoding gene and use thereof” (BEIJING DABEINONG BIOTECHNOLOGY CO., LTD., priority 2015, dated 2020)

Columns and labels:
[1] = test system: Soybean plants containing 24DT21 nucleotide sequence (S1, S2, S3); assay: Herbicide-resistance effect of transgenic soybean T1 plants (spraying, damage degree); format: in vivo; conditions: 2240 g ae/ha (4x); for Average damage % 6 HAT: 6 hours after spraying; for Average damage % 2 DAT: 2 days after spraying; for Average damage % 7 DAT: 7 days after spraying; for Average damage % 14 DAT: 14 days after spraying
Description: (§1) Herbicide resistance effects tests to 2,4-D dimethyl ammonium salt and agroxone of soybean plants containing 24DT21 nucleotide sequence and control nucleotide sequence respectively and wild type soybean plants (stages V3-V4) were performed respectively.
(§2) Soybean plants containing 24DT21 nucleotide sequence, control nucleotide sequence and wild type soybean plants were taken and spayed with 2,4-D dimethyl ammonium salt (2240 g ae/ha, four-folds concentration in field), agroxone (2240 g ae/ha, four-folds concentration in field) and blank solvent (water). Take statistics of the damage degree of each plant caused by herbicides according to the curling degree of leaves and the damage degree of growing point six hours ([…]), two days (2DAT), seven days (7DAT) and 14 days (14DAT) after spraying respectively: if leaves are flat like wild-type leaves and the growing point is intact, the damage degree is 0%; if leaves curl up and wilt and the growing point is died, the damage degree is 100%. There are three strains contained a transferred 24DT21 nucleotide sequence (S1, S2 and S3), two strains contained a transferred control sequence (S4 and S5) and one wild-type strain (CK1) in total; select 10˜15 plants from each strain for testing.

[2] = test system: Corn plants containing 24DT21 nucleotide sequence (S6, S7, S8); assay: Herbicide-resistance effect test of transgenic corn T1 plants (spraying, prop root development); format: in vivo; conditions: 8960 g ae/ha (16x), 21 days after spraying; for Abnormal development of brace roots / Normal development of brace roots: number of plants
Description: (§3) Herbicide resistance effects tests to 2,4-D dimethyl ammonium salt and agroxone of corn plants containing 24DT21 nucleotide sequence, control nucleotide sequence respectively and wild type corn plants (stages V3-V4) were performed respectively.
(§4) Corn plants containing 24DT21 nucleotide sequence, control nucleotide sequence respectively and wild type corn plants were taken and spayed with 2,4-D dimethyl ammonium salt (8960 g ae/ha, 16-folds concentration in field), agroxone (8960 g ae/ha, 16-folds concentration in field) and blank solvent (water) respectively. Prop root development was counted 21 days after spaying. Three strains (S6, S7 and S8) of corn plants transformed with 24DT21 nucleotide sequence, two strains (S9 and S10) of corn plants transformed with control nucleotide sequence and 1 strain of wild type (CK2) corn were selected and 10-15 plants from each stain were tested.

[3] = test system: wild type corn plants (CK2); assay: Herbicide-resistance effect test of wild type corn (spraying, prop root development); format: in vivo; conditions: wild type corn strain CK2, 8960 g ae/ha (16x), 21 days after spraying; for Abnormal development of brace roots / Normal development of brace roots: number of plants
Description: as §3, §4

[4] = test system: Corn plants containing control nucleotide sequence (S9, S10); assay: Herbicide-resistance effect test of corn plants, control sequence (spraying, prop root development); format: in vivo; conditions: 8960 g ae/ha (16x), 21 days after spraying; for Abnormal development of brace roots / Normal development of brace roots: number of plants
Description: as §3, §4

[5] = test system: Arabidopsis T1 plants transformed with 24DT21 nucleotide sequence; assay: Herbicide resistance effect test of transgenic Arabidopsis T1 plants (spraying); format: in vivo, Arabidopsis thaliana; conditions: genotype 24DT21, 560 g ae/ha (1x); for Non-resistant: number of plants of 32 dead 14 days after spraying; for Low resistant: number of plants of 32 incapable of bolting 14 days after spraying; for Moderate resistant: number of plants of 32 with curly rosette leaves 7 days after spraying; for High resistant: number of plants of 32 with growth consistent with blank solvent 7 days after spraying
Excerpt: (§5) 24DT21 gene was used to transform Arabidopsis for the first time. At first, T1 transformants were selected from the background of un-transformed seeds, using glufosinate-ammonium selection scheme. About 20000 T1 seeds are screened among which 139 strains of T1 generation positive transformants (PAT gene) were identified, i.e. the transformation efficiency was about 0.7%. Herbicide resistance effect tests to 2,4-D dimethyl ammonium salt and agroxone of Arabidopsis T1 plants transformed with 24DT21 nucleotide sequence, control nucleotide sequence respectively and wild-type Arabidopsis plants were performed after 18 days of planting.
(§6) Arabidopsis T1 plants transformed with 24DT21 nucleotide sequence, control nucleotide sequence respectively and wild-type Arabidopsis plants were sprayed with 2,4-D dimethyl ammonium salt (560 g ae/ha, 1-fold concentration in field), agroxone (560 g ae/ha, 1-fold concentration in field) and blank solvent (water). Resistance conditions of the plants were counted 7 days and 14 days after spraying. Plants with growth conditions consistent with blank solvent (water) 7 days after spaying were classified as highly resistant plants; Plants with curly rosette leaves 7 days after spaying were classified as moderately resistant plants; Plants incapable of bolting 14 days after spaying were classified as low-resistant plants and the dead plants 14 days after spaying were classified as non-resistant plants. Because each Arabidopsis T1 plant is an independent transformation event, significant differences of individual T1 responses can be expected under a given dose.

[6] = test system: wild-type Arabidopsis plants; assay: Herbicide resistance effect test of wild-type Arabidopsis (spraying); format: in vivo, Arabidopsis thaliana; conditions: genotype Wild, 560 g ae/ha (1x); for Non-resistant: number of plants of 32 dead 14 days after spraying; for Low resistant: number of plants of 32 incapable of bolting 14 days after spraying; for Moderate resistant: number of plants of 32 with curly rosette leaves 7 days after spraying; for High resistant: number of plants of 32 with growth consistent with blank solvent 7 days after spraying
Excerpt: as §5, §6

[7] = test system: Soybean plants containing control nucleotide sequence (S4, S5); assay: Herbicide-resistance effect of soybean plants, control sequence (spraying, damage degree); format: in vivo; conditions: 2240 g ae/ha (4x); for Average damage % 6 HAT: 6 hours after spraying; for Average damage % 2 DAT: 2 days after spraying; for Average damage % 7 DAT: 7 days after spraying; for Average damage % 14 DAT: 14 days after spraying
Description: as §1, §2

[8] = test system: Arabidopsis T1 plants transformed with control nucleotide sequence; assay: Herbicide resistance effect test of Arabidopsis T1 plants, control sequence (spraying); format: in vivo, Arabidopsis thaliana; conditions: genotype Control, 560 g ae/ha (1x); for Non-resistant: number of plants of 32 dead 14 days after spraying; for Low resistant: number of plants of 32 incapable of bolting 14 days after spraying; for Moderate resistant: number of plants of 32 with curly rosette leaves 7 days after spraying; for High resistant: number of plants of 32 with growth consistent with blank solvent 7 days after spraying
Excerpt: as §5, §6

[9] = test system: wild type soybean plants (CK1); assay: Herbicide-resistance effect of wild type soybean (spraying, damage degree); format: in vivo; conditions: wild-type soybean strain CK1, 2240 g ae/ha (4x); for Average damage % 6 HAT: 6 hours after spraying; for Average damage % 2 DAT: 2 days after spraying; for Average damage % 7 DAT: 7 days after spraying; for Average damage % 14 DAT: 14 days after spraying
Description: as §1, §2

[10] = corn strain S9 (control sequence)
[11] = corn strain S10 (control sequence)
[12] = soybean strain S4 (control sequence)
[13] = soybean strain S5 (control sequence)

CNC.O=C(O)COc1ccc(Cl)cc1Cl [2,4-D dimethyl ammonium salt]
Average damage % 6 HAT ([1]; soybean strain S1 (24DT21)): 6%
Average damage % 2 DAT ([1]; soybean strain S1 (24DT21)): 4%
Average damage % 7 DAT ([1]; soybean strain S1 (24DT21)): 0%
Average damage % 14 DAT ([1]; soybean strain S1 (24DT21)): 0%
Average damage % 6 HAT ([1]; soybean strain S2 (24DT21)): 11%
Average damage % 2 DAT ([1]; soybean strain S2 (24DT21)): 4%
Average damage % 7 DAT ([1]; soybean strain S2 (24DT21)): 0%
Average damage % 14 DAT ([1]; soybean strain S2 (24DT21)): 0%
Average damage % 6 HAT ([1]; soybean strain S3 (24DT21)): 3%
Average damage % 2 DAT ([1]; soybean strain S3 (24DT21)): 0%
Average damage % 7 DAT ([1]; soybean strain S3 (24DT21)): 0%
Average damage % 14 DAT ([1]; soybean strain S3 (24DT21)): 0%
Proportion of normal development of brace roots ([2]; corn strain S6 (24DT21)): 100.00%
Abnormal development of brace roots ([2]; corn strain S6 (24DT21)): 0
Normal development of brace roots ([2]; corn strain S6 (24DT21)): 12
Proportion of normal development of brace roots ([2]; corn strain S7 (24DT21)): 100.00%
Abnormal development of brace roots ([2]; corn strain S7 (24DT21)): 0
Normal development of brace roots ([2]; corn strain S7 (24DT21)): 13
Proportion of normal development of brace roots ([2]; corn strain S8 (24DT21)): 100.00%
Abnormal development of brace roots ([2]; corn strain S8 (24DT21)): 0
Normal development of brace roots ([2]; corn strain S8 (24DT21)): 11
Proportion of normal development of brace roots [3]: 0%
Abnormal development of brace roots [3]: 15
Normal development of brace roots [3]: 0
Proportion of normal development of brace roots [4, 10]: 0%
Abnormal development of brace roots [4, 10]: 12
Normal development of brace roots [4, 10]: 0
Proportion of normal development of brace roots [4, 11]: 0%
Abnormal development of brace roots [4, 11]: 11
Normal development of brace roots [4, 11]: 0
Non-resistant [5]: 4
Low resistant [5]: 1
Moderate resistant [5]: 3
High resistant [5]: 24
Non-resistant [6]: 32
Low resistant [6]: 0
Moderate resistant [6]: 0
High resistant [6]: 0
Average damage % 6 HAT [7, 12]: 46%
Average damage % 2 DAT [7, 12]: 76%
Average damage % 7 DAT [7, 12]: 96%
Average damage % 14 DAT [7, 12]: 100%
Average damage % 6 HAT [7, 13]: 53%
Average damage % 2 DAT [7, 13]: 77%
Average damage % 7 DAT [7, 13]: 91%
Average damage % 14 DAT [7, 13]: 100%
Non-resistant [8]: 32
Low resistant [8]: 0
Moderate resistant [8]: 0
High resistant [8]: 0
Average damage % 6 HAT [9]: 48%
Average damage % 2 DAT [9]: 72%
Average damage % 7 DAT [9]: 94%
Average damage % 14 DAT [9]: 100%

Cc1cc(Cl)ccc1OCC(=O)O [agroxone]
Average damage % 6 HAT ([1]; soybean strain S1 (24DT21)): 10%
Average damage % 2 DAT ([1]; soybean strain S1 (24DT21)): 5%
Average damage % 7 DAT ([1]; soybean strain S1 (24DT21)): 0%
Average damage % 14 DAT ([1]; soybean strain S1 (24DT21)): 0%
Average damage % 6 HAT ([1]; soybean strain S2 (24DT21)): 16%
Average damage % 2 DAT ([1]; soybean strain S2 (24DT21)): 11%
Average damage % 7 DAT ([1]; soybean strain S2 (24DT21)): 6%
Average damage % 14 DAT ([1]; soybean strain S2 (24DT21)): 0%
Average damage % 6 HAT ([1]; soybean strain S3 (24DT21)): 7%
Average damage % 2 DAT ([1]; soybean strain S3 (24DT21)): 4%
Average damage % 7 DAT ([1]; soybean strain S3 (24DT21)): 0%
Average damage % 14 DAT ([1]; soybean strain S3 (24DT21)): 0%
Proportion of normal development of brace roots ([2]; corn strain S6 (24DT21)): 100.00%
Abnormal development of brace roots ([2]; corn strain S6 (24DT21)): 0
Normal development of brace roots ([2]; corn strain S6 (24DT21)): 11
Proportion of normal development of brace roots ([2]; corn strain S7 (24DT21)): 100.00%
Abnormal development of brace roots ([2]; corn strain S7 (24DT21)): 0
Normal development of brace roots ([2]; corn strain S7 (24DT21)): 12
Proportion of normal development of brace roots ([2]; corn strain S8 (24DT21)): 100.00%
Abnormal development of brace roots ([2]; corn strain S8 (24DT21)): 0
Normal development of brace roots ([2]; corn strain S8 (24DT21)): 13
Proportion of normal development of brace roots [3]: 0%
Abnormal development of brace roots [3]: 15
Normal development of brace roots [3]: 0
Proportion of normal development of brace roots [4, 10]: 0%
Abnormal development of brace roots [4, 10]: 13
Normal development of brace roots [4, 10]: 0
Proportion of normal development of brace roots [4, 11]: 0%
Abnormal development of brace roots [4, 11]: 10
Normal development of brace roots [4, 11]: 0
Non-resistant [5]: 7
Low resistant [5]: 2
Moderate resistant [5]: 2
High resistant [5]: 21
Non-resistant [6]: 32
Low resistant [6]: 0
Moderate resistant [6]: 0
High resistant [6]: 0
Average damage % 6 HAT [7, 12]: 38%
Average damage % 2 DAT [7, 12]: 69%
Average damage % 7 DAT [7, 12]: 87%
Average damage % 14 DAT [7, 12]: 100%
Average damage % 6 HAT [7, 13]: 47%
Average damage % 2 DAT [7, 13]: 74%
Average damage % 7 DAT [7, 13]: 92%
Average damage % 14 DAT [7, 13]: 100%
Non-resistant [8]: 32
Low resistant [8]: 0
Moderate resistant [8]: 0
High resistant [8]: 0
Average damage % 6 HAT [9]: 34%
Average damage % 2 DAT [9]: 61%
Average damage % 7 DAT [9]: 82%
Average damage % 14 DAT [9]: 100%
